Results taken from paper PMC10986179, “PCC0208057 as a small molecule inhibitor of TRPC6 in the treatment of prostate cancer” (Frontiers in Pharmacology, 2024).

Target: T1, TRPC6 (transient receptor potential canonical 6) (Homo sapiens, UniProt Q9Y210)
T1 sequence (Q9Y210 1-931): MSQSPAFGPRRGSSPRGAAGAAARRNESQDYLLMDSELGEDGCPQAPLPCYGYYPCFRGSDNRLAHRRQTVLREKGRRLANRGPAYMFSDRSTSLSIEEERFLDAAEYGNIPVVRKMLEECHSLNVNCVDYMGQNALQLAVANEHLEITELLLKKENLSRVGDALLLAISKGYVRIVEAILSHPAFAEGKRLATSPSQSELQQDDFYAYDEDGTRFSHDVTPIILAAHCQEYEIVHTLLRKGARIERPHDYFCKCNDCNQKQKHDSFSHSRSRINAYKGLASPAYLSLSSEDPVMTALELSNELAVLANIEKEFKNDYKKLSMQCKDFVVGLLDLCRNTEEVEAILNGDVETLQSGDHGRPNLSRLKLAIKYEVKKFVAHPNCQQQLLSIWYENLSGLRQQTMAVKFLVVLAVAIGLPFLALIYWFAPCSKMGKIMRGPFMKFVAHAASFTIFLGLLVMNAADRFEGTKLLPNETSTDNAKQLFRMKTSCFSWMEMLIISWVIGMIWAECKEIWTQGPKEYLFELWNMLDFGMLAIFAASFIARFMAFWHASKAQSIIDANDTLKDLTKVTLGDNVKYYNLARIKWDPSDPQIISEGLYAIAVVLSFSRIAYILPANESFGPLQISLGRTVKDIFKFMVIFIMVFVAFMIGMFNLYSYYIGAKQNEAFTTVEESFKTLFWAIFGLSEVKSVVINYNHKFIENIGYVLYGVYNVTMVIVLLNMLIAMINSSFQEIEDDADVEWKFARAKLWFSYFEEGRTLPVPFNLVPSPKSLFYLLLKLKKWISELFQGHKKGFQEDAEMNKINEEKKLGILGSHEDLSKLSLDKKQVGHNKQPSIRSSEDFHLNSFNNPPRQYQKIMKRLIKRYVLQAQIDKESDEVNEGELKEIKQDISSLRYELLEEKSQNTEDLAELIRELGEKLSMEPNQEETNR
Assay: Fluo-4 Ca2+ assay in TRPC6-HEK293 cells; also electrophysiology of GSK1702934A-evoked TRPC6 currents
Type: cell-based

IC50: 2440 nM
Structure (SMILES): COc1cccc2sc(N(CCN3CCCC3)C(=O)c3ccc4c(c3)OCO4)nc12 [PCC0208057]
